# According to patent US10500207B2, “Compounds for the treatment of diseases associated with amyloid or amyloid-like proteins” (AC Immune SA, priority 2010, dated 2019):
# Biological target: Aβ1-42 peptide (Homo sapiens, UniProt P05067)
# Test: Thioflavin T spectrofluorescence assay (ThT-assay): inhibition of Aβ1-42 aggregation (% inhibition at 330 μM; IC50 from dilution series)
# Conditions: 24 h, read-out: Inhibition at 330 μM [%], ThT assay; 330 μM small molecule, 33 μM Aβ1-42 (10:1), 24 hrs at 37° C.; mean ± standard deviation of two independent experiments
# Method: Aβ1-42 lyophilized powder (Bachem) was reconstituted in hexafluoroisopropanol (HFIP) to 1 mM. The peptide solution was sonicated for 15 min at room temperature, agitated overnight, and aliquots were made into non-siliconized microcentrifuge tubes. The HFIP was then evaporated under a stream of argon. The resulting peptide film was dried under vacuum for 10 min, tightly sealed and stored at −80° C. until used.
# A positive control without a small molecule was prepared to measure maximum RFU. A negative control without Aβ1-42 was prepared for each small molecule. […] The solutions were then incubated for 24 hrs at 37° C., and the spectrofluorescence (relative fluorescence units; RFU) were read in six replicates in black 384-well assay plates (Perkin-Elmer) on a Perkin-Elmer FluoroCount spectrofluorometer. The inhibition of aggregation is expressed as mean % inhibition±1 standard deviation (SD) according to the following equation:
# Racemic compounds and their enantiomers were tested for their ability to inhibit amyloid peptide aggregation using the ThT assay. To determine the IC50, the following dilutions of the compounds were used in the ThT assay described above:
# Chain of Aβ1-42 peptide (P05067 672-713 limits assumed): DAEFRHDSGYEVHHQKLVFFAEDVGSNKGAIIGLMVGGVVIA
row,inhibition at 330 µM,Structure (SMILES)
1,75 ± 1.4%,CN1CCC(c2c[nH]c3cc(Nc4ccc5c(c4)OCCCO5)ccc23)CC1 [Example 78]
2,91 ± 4.2%,CN1CCC(c2c[nH]c3cc(Nc4cc(F)c(F)cc4F)ccc23)CC1 [Example 79]
3,83.3 ± 0.1%,CNC1CCc2c(c3ccc(Nc4cccc(N5CCN(C)CC5)c4)nc3n2C)C1 (stereo not drawn) [Example 80]
4,90.5 ± 0.5%,COc1ccc(Nc2ccc3c4c(n(C)c3n2)CCCC4)cc1OC [Example 81]
5,96.6 ± 2%,CNC1CCc2c(c3ccc(Nc4cccc(N5CCOCC5)c4)nc3n2C)C1 (stereo not drawn) [Example 82]
6,82.7 ± 0.7%,CNC1CCc2c(c3ccc(Nc4ccc(N5CCN(C)CC5)cc4)nc3n2C)C1 (stereo not drawn) [Example 83]
7,91.7 ± 0.2%,CNC1CCc2c(c3ccc(Nc4ccc5c(c4)OCCCO5)nc3n2C)C1 (stereo not drawn) [Example 84]
8,95.1 ± 0.9%,CNC1CCc2c(c3ccc(Nc4ccc5c(c4)OCC(=O)N5)nc3n2C)C1 (stereo not drawn) [Example 85]
9,96.6 ± 0.7%,CNC1CCc2c(c3ccc(Nc4ccc5c(c4)NC(=O)CO5)nc3n2C)C1 (stereo not drawn) [Example 86]
10,80.8 ± 0.5%,CN1CCC(c2c[nH]c3cc(Nc4ccc5c(c4)OCC(=O)N5)ccc23)CC1 [Example 87]
11,96.9 ± 2.6%,COc1ccc(Nc2ccc3[nH]c4c(c3c2)CC(N(C)C)CC4)cc1OC (stereo not drawn) [Example 88]
12,89.6 ± 5%,CNC1(C)CCc2c(c3ccc(Nc4ccc(F)c(F)c4)nc3n2C)C1 (stereo not drawn) [Example 89]
13,75.1 ± 0.3%,CNC1(C)CCc2c(c3ccc(Nc4ccc(OC)c(OC)c4)nc3n2C)C1 (stereo not drawn) [Example 90]
14,92.5 ± 1.3%,COc1ccc(Nc2ccc3c(C4CCN(C)CC4)c[nH]c3c2)cc1OC [Example 91]
15,99.6 ± 0.6%,CNC1CCc2c(c3ccc(Nc4ccc5[nH]cc(C6CCNCC6)c5c4)nc3n2C)C1 (stereo not drawn) [Example 92]
16,94.4 ± 3.6%,c1ccc2c(c1)CCC2Nc1ccc2c(C3CCNCC3)c[nH]c2c1 (stereo not drawn) [Example 94]
17,89.9 ± 6.1%,CNC1CCc2c(c3ccc(Nc4ccc(OC)c(OC)c4)nc3n2C)C1 (stereo not drawn) [Example 95]
18,83.8 ± 3.7%,COc1ccc(Nc2ccc3c(C4CCNCC4)cn(C)c3c2)cc1OC [Example 97]
19,95.3 ± 0.1%,COc1ccc(Nc2ccc3c(C4CCNCC4)cn(C)c3c2)cc1F [Example 98]
20,94.4 ± 0.1%,COc1ccc(Nc2ccc3c(C4CCN(C)CC4)c[nH]c3c2)cc1F [Example 99]
21,66.6 ± 1.3%,COc1ccc(Nc2ccc3[nH]cc(C4CCN(C)CC4)c3c2)cc1OC [Example 100]

row,inhibition at 330 µM,Structure (SMILES)
1,70.2 ± 9.8%,COc1ccc(Nc2ccc3[nH]cc(C4CCN(C)CC4)c3c2)cc1F [Example 101]
2,84.1 ± 1.5%,COc1ccc(Nc2ccc3c(C4CCNCC4)c[nH]c3n2)cc1F [Example 102]
3,93.2 ± 3.7%,COc1ccc(Nc2ccc3c(C4CCNCC4)cn(C)c3n2)cc1F [Example 103]
4,89.3 ± 10.6%,COc1ccc(Nc2ccc3c(C4CCN(C)CC4)cn(C)c3c2)cc1OC [Example 104]
5,96.7 ± 0.7%,COc1ccc(Nc2ccc3c(C4CCN(C)CC4)cn(C)c3n2)cc1F [Example 105]
6,86.4 ± 3.8%,CNC1CCc2[nH]c3ccc(Nc4ccc(OC)c(OC)c4)cc3c2C1 (stereo not drawn) [Example 106]
7,86.8 ± 1.9%,CNC1CCc2[nH]c3ccc(Nc4ccc(OC)c(F)c4)cc3c2C1 (stereo not drawn) [Example 107]
8,98.9 ± 0.5%,CNC1CCc2[nH]c3ccc(Nc4ccc5c(C6CCNCC6)cn(C)c5c4)cc3c2C1 (stereo not drawn) [Example 108]
9,63.6 ± 2%,CNC1CCc2[nH]c3ccc(NC4CCN(C)CC4)cc3c2C1 (stereo not drawn) [Example 109]
10,99.5 ± 0.1%,Cn1cc(C2CCNCC2)c2ccc(Nc3ccc4ocnc4c3)cc21 [Example 111]
11,91.3 ± 1.3%,COc1cc(Nc2ccc3c(C4CCNCC4)cn(C)c3c2)ccc1F [Example 112]
12,90.5 ± 0.5%,CN1CCC(c2c[nH]c3cc(Nc4cc(F)c(F)c(F)c4)ccc23)CC1 [Example 113]
13,82.2 ± 1.6%,COc1cc(Nc2ccc3c(C4CCN(C)CC4)c[nH]c3c2)ccc1F [Example 114]
14,94 ± 0.8%,CNC1CCc2c(c3ccc(Nc4ccc(F)c(OC)c4)nc3n2C)C1 (stereo not drawn) [Example 115]
15,89 ± 3.6%,CNC1CCc2[nH]c3ccc(Nc4ccc(F)c(OC)c4)cc3c2C1 (stereo not drawn) [Example 116]
16,90.7 ± 7.9%,CNC1CCc2c(c3ccc(Nc4ccc5c(C6CCN(C)CC6)c[nH]c5c4)nc3n2C)C1 (stereo not drawn) [Example 117]
17,96.8 ± 0.9%,CN1CCC(c2c[nH]c3cc(Nc4ccc5[nH]cc(C6CCN(C)CC6)c5c4)ccc23)CC1 [Example 118]
18,99.2 ± 0.3%,CN1CCC(c2c[nH]c3cc(Nc4ccc5c(C6CCN(C)CC6)c[nH]c5c4)ccc23)CC1 [Example 119]
19,100%,CNC1CCc2[nH]c3cc(Nc4ccc(OC)c(OC)c4)ccc3c2C1 (stereo not drawn) [Example 120]
20,91 ± 2.5%,COc1ccc(Nc2ccc3c(c2)c2c(n3C)CCC(OC)C2)cc1OC (stereo not drawn) [Example 121]
21,80.8 ± 2.9%,COc1cc(Nc2ccc3c(c2)c2c(n3C)CCC(OC)C2)ccc1F (stereo not drawn) [Example 122]

row,inhibition at 330 µM,Structure (SMILES)
1,93 ± 2.2%,COc1ccc(Nc2ccc3c4c(n(C)c3c2)CCC(OC)C4)cc1OC (stereo not drawn) [Example 123]
2,79.1 ± 3.8%,COc1cc(Nc2ccc3c4c(n(C)c3c2)CCC(OC)C4)ccc1F (stereo not drawn) [Example 124]
3,84.2 ± 5.8%,COC1CCc2c(c3cc(Nc4ccc5c(c4)OCO5)ccc3n2C)C1 (stereo not drawn) [Example 125]
4,82.2 ± 2.2%,COC1CCc2c(c3cc(Nc4ccc5c(c4)OCCO5)ccc3n2C)C1 (stereo not drawn) [Example 126]
5,91.5 ± 2.5%,COC1CCc2[nH]c3cc(Nc4ccc5c(c4)OCCO5)ccc3c2C1 (stereo not drawn) [Example 127]
6,88.6 ± 1.2%,Cn1c2c(c3ccc(Nc4ccc(F)c(F)c4)nc31)CC(OCCF)CC2 (stereo not drawn) [Example 128]
7,79.9 ± 0.6%,COc1ccc(Nc2ccc3c4c(n(C)c3n2)CCC(OCCF)C4)cc1OC (stereo not drawn) [Example 129]
8,91.6 ± 0.2%,Cn1c2c(c3ccc(Nc4ccc5c(c4)OCCO5)nc31)CC(OCCF)CC2 (stereo not drawn) [Example 130]
9,91.4 ± 0.2%,COc1ccc(Nc2ccc3c4c(n(C)c3n2)CCC(OC(C)C)C4)cc1OC (stereo not drawn) [Example 131]
10,99.4 ± 0.8%,CNC1CCc2[nH]c3cc(Nc4ccc5c(c4)OCCO5)ccc3c2C1 (stereo not drawn) [Example 132]
11,99.2 ± 0.3%,CNC1CCc2c(c3ccc(Nc4ccc(OC)c(OC)c4)cc3n2C)C1 (stereo not drawn) [Example 133]
12,67.3 ± 10.4%,CNC1CCc2c(c3cc(Nc4ccc(F)c(F)c4)cnc3n2C)C1 (stereo not drawn) [Example 134]
13,51.9 ± 5.5%,CNC1CCc2c(c3cc(Nc4ccc(OC)c(OC)c4)cnc3n2C)C1 (stereo not drawn) [Example 135]
14,88 ± 1.4%,COCCOC1CCc2c(c3ccc(Nc4ccc(F)c(F)c4)nc3n2C)C1 (stereo not drawn) [Example 136]
15,83.3 ± 3.3%,CNC1CCc2c(c3cc(Nc4ccc5c(c4)OCCO5)cnc3n2C)C1 (stereo not drawn) [Example 137]
16,69.3 ± 0.7%,CNC1CCc2c(c3cc(Nc4ccc(F)c(OC)c4)cnc3n2C)C1 (stereo not drawn) [Example 138]
17,93.8 ± 0.6%,CNC1CCc2c(c3ccc(Nc4ccc(F)c(F)c4)cc3n2C)C1 (stereo not drawn) [Example 140]
18,87.5 ± 1.4%,COCCNC1CCc2c(c3ccc(Nc4ccc(F)c(F)c4)nc3n2C)C1 (stereo not drawn) [Example 141]
19,73.2 ± 6.2%,COCCNC1CCc2c(c3ccc(Nc4ccc(OC)c(OC)c4)nc3n2C)C1 (stereo not drawn) [Example 142]
20,64.8 ± 3.7%,CC(=O)Nc1cccc(Nc2ccc3c(C4CCNCC4)c[nH]c3n2)c1 [Example 143]
21,88.3 ± 4.9%,Cn1cc(C2CCNCC2)c2ccc(Nc3ccc4c(c3)OCO4)cc21 [Example 145]

row,inhibition at 330 µM,Structure (SMILES)
1,88.7 ± 2.2%,CN1CCC(c2c[nH]c3cc(Nc4ccc5c(C6CCN(C)CC6)c[nH]c5n4)ccc23)CC1 [Example 148]
2,84.4 ± 4.1%,CN1CCC(c2cn(C)c3nc(Nc4ccc5c(c4)OCO5)ccc23)CC1 [Example 149]
3,83.9 ± 1.5%,CN1CCC(c2cn(C)c3nc(Nc4ccc5c(c4)OCCO5)ccc23)CC1 [Example 150]
4,88.5 ± 2.8%,CN1CCC(c2cn(C)c3nc(Nc4ccc(F)c(F)c4)ccc23)CC1 [Example 151]
5,80.8 ± 3.6%,CN1CCC(c2cn(C)c3nc(Nc4ccc5c(c4)CN(C)CC5)ccc23)CC1 [Example 152]
6,91.3 ± 4.2%,CN1CCC(c2c[nH]c3cc(Nc4ccc5c(c4)OCO5)ccc23)CC1 [Example 153]
7,86.3 ± 2.6%,CN1CCC(c2c[nH]c3cc(Nc4ccc5c(c4)CNCC5)ccc23)CC1 [Example 154]
8,95 ± 1.5%,CNC1CCc2c(c3ccc(Nc4ccc5c(c4)OCO5)nc3n2C)C1 (stereo not drawn) [Example 157]
9,87.8 ± 3.6%,CNC1CCc2c(c3ccc(Nc4ccc5c(c4)CN(C)CC5)nc3n2C)C1 (stereo not drawn) [Example 158]
10,91.9 ± 1.6%,CNC1CCc2c(c3ccc(Nc4ccc5ncn(C)c5c4)nc3n2C)C1 (stereo not drawn) [Example 159]
11,96.3 ± 0.3%,CNC1CCc2c(c3ccc(Nc4ccc(C)c(OC)c4)nc3n2C)C1 (stereo not drawn) [Example 160]
12,94.5 ± 3.1%,CN1CCC(c2c[nH]c3cc(Nc4ccc(N5CCOCC5)cc4)ccc23)CC1 [Example 162]
13,32.7 ± 0.9%,Cn1c2c(c3ccc(N4CCOCC4)nc31)CCCC2 [Example 163]
14,69.4 ± 2.7%,CC(=O)N(C)C1CCc2c(c3ccc(Nc4ccc(N5CCOCC5)cc4)nc3n2C)C1 (stereo not drawn) [Example 164]
15,78.1 ± 0.2%,Cn1c2c(c3ccc(Nc4ccc(N5CCOCC5)cc4)nc31)CCCC2 [Example 165]
16,93.6 ± 2.2%,CN1CCN(c2ccc(Nc3ccc4c5c(n(C)c4n3)CCCC5)cc2)CC1 [Example 166]
17,88.9 ± 2.6%,Cn1c2c(c3ccc(Nc4ccc5c(c4)OCC(=O)N5)nc31)CCCC2 [Example 167]
18,82.1 ± 7%,Cn1c2c(c3ccc(Nc4ccc5c(c4)NC(=O)CO5)nc31)CCCC2 [Example 168]
19,92.4 ± 4%,Cn1c2c(c3ccc(Nc4ccc5c(c4)OCO5)nc31)CCCC2 [Example 169]
20,70.8 ± 2.3%,CC(=O)N1CCN(c2ccc(Nc3ccc4c5c(n(C)c4n3)CCCC5)cc2)CC1 [Example 170]
21,68.3 ± 0.8%,Cn1cnc2ccc(Nc3ccc4c5c(n(C)c4n3)CCCC5)cc21 [Example 172]
